For series [1] the following is noted: in vivo.
The conditions of series [2]: compared with other treatments; cited from earlier work.
A further series concerns participants with WD. As to the method:
Incremental dose increases are permitted, but not required, up to a maximum of 60 mg/day.
In summary, the maximum daily dose permitted in this study (Study 302) has been set as […].

A further series deals with patients with WD. To be noted: cited from earlier work.

Data on one substance can be found in patent publication US20240342127A1, “METHODS OF TREATING COPPER METABOLISM-ASSOCIATED DISEASES OR DISORDERS” (Alexion Pharmaceuticals, Inc., priority 2021, published 2024).

Bis-choline tetrathiomolybdate [BC-TTM]: the “effect of age, sex or body weight on PK” value in series [1] was “not significant covariates”. Also, in series [2], the “binding affinity to copper” value is on record as “greater binding affinity to copper compared with other treatments”. In addition, the “copper mobilization from tissue to blood compared with SoC, as measured by daily mean dNCC AUEC0-48 weeks” value in the series with participants with WD (48-week Primary Evaluation Period, overall mean daily dose 15.6 mg) is recorded as “approximately 3 fold”. For the same substance, the “participants with Grade 2 ALT elevations during treatment” value with participants with WD (in vivo) was “approximately 15%”. For the same substance, the “reduction of mean serum non-ceruloplasmin-bound Cu (NCC) compared with baseline” value in the series on patients with WD (Week 24, 28 patients with WD, monotherapy) is reported as 72%. For the same substance, in the series on patients with WD (human, in vivo), the “most frequently reported drug-related AEs” value was “changes in hematological parameters, fatigue, sulphur eructations, and other gastrointestinal symptoms”; the “paradoxical neurological worsening upon treatment initiation” value is listed as “No paradoxical neurological worsening was observed”; the “patients with reversible liver function test elevations” value is on record as 39%; the “severity of most reported adverse events” value was “mild (Grade 1) to moderate (Grade 2)”. Besides, the tolerability of treatment result with patients with WD (human, in vivo) was “generally well-tolerated”.
